The supplement of paper PMC10307832

Experiments:
Assay in all cases: relative viability (nuclei count vs DMSO), 5 days (fraction); higher = more cells survive
[1] = compound: COc1cc(Nc2ncc3c(n2)-c2ccc(Cl)cc2C(c2c(F)cccc2OC)=NC3)ccc1C(=O)O [Alisertib] + CS(=O)(=O)CCNCc1ccc(-c2ccc3ncnc(Nc4ccc(OCc5cccc(F)c5)c(Cl)c4)c3c2)o1 [Lapatinib] (partner 2 µM)
In short: (§1)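 The day after seeding in 1536-well plates, lung cancer cell lines were treated by pin tool with a single drug, or with a fixed anchor-drug dose together with five library-drug doses (not always all listed) in √10 steps. After 5 days, a combined fix-and-stain solution (final 0.05% Triton X-100, 1% formaldehyde, 1 ug/ml Hoechst) was added. Nuclei counted on 4× images gave relative viability as treated counts over vehicle counts, reported as the median of duplicate plates.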

[2] = compound: COc1cc(Nc2ncc3c(n2)-c2ccc(Cl)cc2C(c2c(F)cccc2OC)=NC3)ccc1C(=O)O [Alisertib] + C[C@@H](Oc1cc(-c2cnn(C3CCNCC3)c2)cnc1N)c1c(Cl)ccc(F)c1Cl [Crizotinib] (partner 1 µM)
In short: as §1

[3] = compound: COc1cc(Nc2ncc3c(n2)-c2ccc(Cl)cc2C(c2c(F)cccc2OC)=NC3)ccc1C(=O)O [Alisertib] + Cc1nc(Nc2ncc(C(=O)Nc3c(C)cccc3Cl)s2)cc(N2CCN(CCO)CC2)n1 [Dasatinib] (partner 0.075 µM)
In short: as §1

[4] = compound: COc1cc(Nc2ncc3c(n2)-c2ccc(Cl)cc2C(c2c(F)cccc2OC)=NC3)ccc1C(=O)O [Alisertib] + Nc1nc2[nH]cc(CCc3ccc(C(=O)N[C@@H](CCC(=O)O)C(=O)O)cc3)c2c(=O)[nH]1 [Pemetrexed] (partner 0.2 µM)
In short: as §1

Row | Cell Line | relative viability ([1]; first compound 0.005 µM) | relative viability ([1]; first compound 0.01581 µM) | relative viability ([1]; first compound 0.05 µM) | relative viability ([1]; first compound 0.1581 µM) | relative viability ([1]; first compound 0.5 µM) | relative viability ([2]; first compound 0.005 µM) | relative viability ([2]; first compound 0.01581 µM) | relative viability ([2]; first compound 0.05 µM) | relative viability ([2]; first compound 0.1581 µM) | relative viability ([2]; first compound 0.5 µM) | relative viability ([3]; first compound 0.005 µM) | relative viability ([3]; first compound 0.01581 µM) | relative viability ([3]; first compound 0.05 µM) | relative viability ([3]; first compound 0.1581 µM) | relative viability ([3]; first compound 0.5 µM) | relative viability ([4]; first compound 0.005 µM) | relative viability ([4]; first compound 0.01581 µM) | relative viability ([4]; first compound 0.05 µM) | relative viability ([4]; first compound 0.1581 µM) | relative viability ([4]; first compound 0.5 µM)
1 | NCI-H650 | 0.767 | 0.558 | 0.266 | 0.301 | 0.208 | 0.773 | 0.55 | 0.28 | 0.239 | 0.23 | 0.429 | 0.479 | 0.21 | 0.194 | 0.169 | 0.739 | 0.825 | 0.35 | 0.262 | 0.2
2 | A-427 | 0.869 | 0.931 | 0.853 | 0.185 | 0.142 | 0.903 | 0.839 | 0.136 | 0.146 | 0.174 | 0.645 | 0.565 | 0.291 | 0.139 | 0.128 | 0.818 | 0.5 | 0.266 | 0.265 | 0.251
3 | COR-L 105 | 0.322 | 0.413 | 0.319 | 0.223 | 0.263 | 0.857 | 0.587 | 0.621 | 0.523 | 0.251 | 0.291 | 0.296 | 0.293 | 0.194 | 0.177 | 1.08 | 0.995 | 0.952 | 0.607 | 0.298
4 | NCI-H2126 | 0.688 | 0.754 | 0.713 | 0.408 | 0.312 | 0.96 | 0.945 | 0.486 | 0.365 | 0.311 | 0.55 | 0.553 | 0.48 | 0.231 | 0.215 | 0.639 | 0.641 | 0.602 | 0.316 | 0.276
5 | NCI-H460 | 0.977 | 0.8 | 0.29 | 0.0226 | 0.0161 | 0.847 | 0.731 | 0.0614 | 0.0166 | 0.0164 | 0.455 | 0.485 | 0.198 | 0.036 | 0.0218 | 0.0584 | 0.0653 | 0.0683 | 0.0474 | 0.0488
6 | SW 1573 | 1.15 | 0.939 | 0.552 | 0.345 | 0.203 | 0.776 | 0.466 | 0.434 | 0.248 | 0.113 | 0.329 | 0.299 | 0.141 | 0.159 | 0.0978 | 0.781 | 0.767 | 0.269 | 0.21 | 0.114
7 | NCI-H322M | 0.564 | 0.616 | 0.548 | 0.296 | 0.315 | 0.809 | 0.777 | 0.431 | 0.498 | 0.313 | 0.233 | 0.23 | 0.26 | 0.184 | 0.206 | 0.588 | 0.628 | 0.561 | 0.4 | 0.427
8 | EKVX | 0.211 | 0.238 | 0.16 | 0.126 | 0.111 | 0.796 | 0.807 | 0.313 | 0.182 | 0.219 | 0.541 | 0.47 | 0.243 | 0.244 | 0.229 | 0.364 | 0.377 | 0.266 | 0.172 | 0.187
9 | NCI-H1734 | 0.905 | 0.746 | 0.404 | 0.264 | 0.175 | 0.669 | 0.523 | 0.357 | 0.227 | 0.155 | 0.449 | 0.358 | 0.291 | 0.181 | 0.151 | 0.42 | 0.427 | 0.405 | 0.286 | 0.203
10 | NCI-H520 | 0.76 | 0.449 | 0.276 | 0.258 | 0.242 | 0.589 | 0.38 | 0.286 | 0.296 | 0.243 | 0.218 | 0.199 | 0.148 | 0.177 | 0.159 | 0.653 | 0.491 | 0.346 | 0.273 | 0.253
11 | EPLC-272H | 0.756 | 0.612 | 0.846 | 0.152 | 0.112 | 0.931 | 0.851 | 0.739 | 0.201 | 0.113 | 0.304 | 0.365 | 0.382 | 0.0703 | 0.0736 | 0.284 | 0.245 | 0.172 | 0.138 | 0.118
12 | NCI-H596 |  | 1 | 1.16 | 0.63 | 0.433 |  | 0.882 | 0.882 | 0.719 | 0.504 | 0.593 | 0.688 | 0.626 | 0.53 | 0.342 | 0.504 | 0.506 | 0.473 | 0.447 | 0.38
13 | NCI-H1792 | 0.847 | 0.875 | 0.61 | 0.215 | 0.0684 | 0.939 | 0.91 | 0.543 | 0.201 | 0.0858 | 0.727 | 0.732 | 0.413 | 0.252 | 0.162 | 0.674 | 0.346 | 0.203 | 0.0756 | 0.0468
14 | NCI-H1993 | 0.81 | 0.694 | 0.537 | 0.539 | 0.5 | 0.564 | 0.744 | 0.6 | 0.573 | 0.527 | 0.538 | 0.644 | 0.474 | 0.386 | 0.433 | 0.614 | 0.631 | 0.506 | 0.539 | 0.422
15 | NCI-H647 | 0.801 | 0.62 | 0.275 | 0.085 | 0.058 | 0.91 | 0.625 | 0.241 | 0.193 | 0.109 | 0.186 | 0.16 | 0.104 | 0.0476 | 0.0381 | 0.155 | 0.178 | 0.122 | 0.0903 | 0.0745
16 | NCI-H1563 | 1.02 | 0.654 | 0.85 | 0.892 | 0.598 | 0.741 | 0.911 | 0.788 | 0.809 | 0.601 | 0.441 | 0.544 | 0.442 | 0.414 | 0.387 | 0.806 | 0.807 | 0.683 | 0.543 | 0.663
17 | HCC-827 | 0.183 | 0.228 | 0.191 | 0.16 | 0.101 | 0.898 | 0.802 | 0.374 | 0.395 | 0.254 | 0.279 | 0.409 | 0.246 | 0.194 | 0.236 | 0.277 | 0.264 | 0.25 | 0.232 | 0.173
18 | NCI-H2228 | 0.731 | 0.562 | 0.182 | 0.115 | 0.209 | 0.686 | 0.406 | 0.301 | 0.168 | 0.188 | 0.414 | 0.416 | 0.248 | 0.0768 | 0.1 | 0.344 | 0.336 | 0.26 | 0.121 | 0.0987
19 | NCI-H2170 | 0.268 | 0.25 | 0.275 | 0.221 | 0.187 | 1.17 | 1.03 | 0.438 | 0.325 | 0.225 | 0.443 | 0.561 | 0.403 | 0.225 | 0.167 | 0.267 | 0.282 | 0.236 | 0.209 | 0.183
20 | EMC-BAC-2 | 0.764 | 0.813 | 0.671 | 0.267 | 0.236 | 0.683 | 0.382 | 0.25 | 0.225 | 0.148 | 0.315 | 0.221 | 0.185 | 0.161 | 0.128 | 0.445 | 0.429 | 0.447 | 0.405 | 0.3
21 | NCI-H23 | 1.01 | 0.427 | 0.27 | 0.176 | 0.171 | 0.427 | 0.367 | 0.202 | 0.179 | 0.187 | 0.67 | 0.661 | 0.301 | 0.173 | 0.198 | 0.489 | 0.346 | 0.271 | 0.213 | 0.212
22 | SK-LU-1 | 0.79 | 0.569 | 0.296 | 0.265 | 0.237 | 0.775 | 0.628 | 0.389 | 0.362 | 0.239 | 0.192 | 0.157 | 0.116 | 0.125 | 0.104 | 0.972 | 0.722 | 0.405 | 0.333 | 0.267
23 | NCI-H358 | 0.389 | 0.434 | 0.211 | 0.177 | 0.161 | 0.632 | 0.358 | 0.193 | 0.188 | 0.186 | 0.168 | 0.176 | 0.114 | 0.0896 | 0.0837 | 0.162 | 0.165 | 0.167 | 0.112 | 0.0889
24 | LC-2-ad | 0.681 | 0.465 | 0.244 | 0.152 | 0.118 | 0.369 | 0.378 | 0.266 | 0.353 | 0.202 | 0.315 | 0.33 | 0.263 | 0.202 | 0.133 | 0.263 | 0.228 | 0.215 | 0.177 | 0.175
25 | HCC-15 | 0.746 | 0.671 | 0.392 | 0.122 | 0.109 | 0.808 | 0.655 | 0.219 | 0.115 | 0.0945 | 0.45 | 0.332 | 0.232 | 0.104 | 0.102 | 0.234 | 0.212 | 0.187 | 0.143 | 0.135
26 | NCI-H2405 | 1.03 | 0.873 | 0.932 | 0.295 | 0.272 | 0.781 | 0.794 | 0.491 | 0.268 | 0.253 | 0.196 | 0.202 | 0.189 | 0.152 | 0.132 | 1.01 | 1.03 | 0.871 | 0.308 | 0.295
27 | LXF-289 | 0.743 | 0.654 | 0.666 | 0.168 | 0.166 | 0.762 | 0.443 | 0.204 | 0.186 | 0.178 | 0.206 | 0.256 | 0.0522 | 0.0513 | 0.0398 | 0.794 | 0.61 | 0.376 | 0.169 | 0.174
